90 compounds from a melting point compilation (Tetko et al.; mined from patent text by program, amines drawn as free bases though some values may be those of a salt) can be followed below.

As for `CCc1c(-c2ccc(OCc3ccccc3)cc2)c2cc(C(=O)O)c3cccc1n32`, the melting point fell in the range of 223 to 224 °C.

Compound `Cc1oc(-c2ccccc2)nc1COc1ccc(Cn2cc(/C=C/C(=O)O)c(-c3ccccc3)c2)cc1` showed a melting point of 154 to 155 °C.

Regarding `CC(C)NCC(O)COc1cccc2c1C(=Cc1ccccc1)C(=O)N2` (stereo not given), the melting point fell in the range of 163 to 165 °C.

In turn, `O=C(NCc1cccs1)c1cc2ccnc(Cl)c2[nH]1` displayed a melting point of 179 to 181 °C.

Compound `COc1ccc(C(=O)N2CCCCc3cc(C4=NNC(=O)SC4C)ccc32)cc1OC` (stereo not given) gave a melting point of 207 °C.

With `CSCc1cc(N)ccc1O`, the melting point amounted to 166 °C.

Compound `O=C(CC1(c2ccccc2)CCCCC1)C(=O)Nc1ccc2c(c1)COC2=O` returned a melting point of 120 to 123 °C.

Turning to `O=c1cc2c(nn1Cc1ccc(Cl)cc1)-c1ccccc1S(=O)(=O)CC2`, the melting point lay in the range of 238 to 239 °C.

`CCCc1cc2c(c(Br)c1O)CCO2` registered a melting point of 42 to 43 °C.

`Cc1cccc(OC(C)(C)C(=O)O)c1C` came in with a melting point of 71 to 73 °C.

Compound `CN(C)S(=O)(=O)c1cc2c(c(C(=O)O)c1)OCCO2` yielded a melting point of 220 to 221 °C.

`CCCCCCCCCCCCOc1cccc2c(OCC(O)CO)cccc12` (stereo not given) returned a melting point of 143 to 144 °C.

In turn, `Cc1nc(CO)c(OCc2ccccc2)c(=O)n1C` displayed a melting point of 93 to 95 °C.

`Nc1ccc2c(c1)CCN(C(=O)C(F)(F)F)CC2` yielded a melting point of 160 to 162 °C.

For the compound `CN1CCC(Cn2sc3cc(Cl)ccc3c2=O)CC1`, the melting point turned out to be 86 °C.

As for `Cc1nn(-c2cc(Oc3ccc([N+](=O)[O-])cn3)c(Cl)cc2F)c(=O)n1C(F)F`, the melting point was in the range of 120 to 123 °C.

The compound `O=C(O)CC1CCCc2c(n(Cc3ccc(-n4ccnc4)cc3)c3ccc(F)cc23)C1` (stereo not given) came in with a melting point of 237 °C.

`COC(=O)c1ccc2c(c1)Sc1ccccc1N=C2` had a melting point of 104 to 110 °C.

Turning to `CC(C)(C)c1ccc(OP(Oc2ccc(C(C)(C)C)cc2C(C)(C)C)Oc2ccc(C(C)(C)C)cc2C(C)(C)C)c(C(C)(C)C)c1`, the melting point was in the range of 181 to 186 °C.

`COc1ccc(C(=O)Nc2ccc(C(=O)O)c3ccccc23)cc1OC` returned a melting point of 256 to 259 °C.

Compound `CC(=O)c1ccnnc1` showed a melting point of 66.5 to 67.5 °C.

With `CCOC(=O)c1cccc(NC(=O)c2ccc(OC)c(N)c2)c1`, the melting point fell in the range of 144 to 146 °C.

The compound `CC1(C)CCCC(Cl)(Cl)C(=O)N1` displayed a melting point of 148 to 155 °C.

In the case of `CC(S)Cn1c(=O)[nH]c2ccccc2c1=O` (stereo not given), the melting point was 206 to 208 °C.

The compound `CN1Cc2c(-c3nc(C4CC4)no3)ncn2-c2cccc(Br)c2C1=O` registered a melting point of 187 to 189 °C.

The compound `O=C(O)C#Cc1ccc(-c2ccccc2)cc1` had a melting point of 170 °C.

`COC(=O)C(CCC(C)(C)Cl)N(C)S(=O)(=O)NC(=O)OCc1ccccc1` (stereo not given): the melting point is 77 to 78 °C.

Regarding `CCCN1CCC=C(c2csc(NC(C)=O)n2)C1`, the melting point is 109 to 112 °C.

Compound `Nc1cc2c(cc1C(=O)CNC(=O)C(F)(F)F)OCO2` gave a melting point of 219 to 220 °C.

Take `CCOC(=O)CCC(=O)NCc1ccc(N)cc1`: the melting point was in the range of 62 to 64 °C.

In turn, `FC(F)(F)c1cccc(CSc2nnc(-c3ncnc4[nH]ccc34)o2)c1` registered a melting point of 199 to 200 °C.

`CC(=O)NC1CCc2cc3c(cc2C1)OCC3O` (stereo not given) had a melting point of 254 °C.

`COc1cccc(-c2ccnc3c(C(N)=O)ncn23)c1` registered a melting point of 249 to 252 °C.

`O=C(O)/C=C/c1ccc(OCc2ccccc2)cc1OCc1ccccc1` displayed a melting point of 153 to 155 °C.

In the case of `CCOC(=O)c1cc(-n2c(=O)[nH]c3c(c2=O)CCC3)ccc1[N+](=O)[O-]`, the melting point lay within 205 to 208 °C.

In turn, `CC(C)CC(=O)Nc1c(C(=O)c2cccc(C(F)(F)F)c2)[nH]c2cc(Cl)ccc12` yielded a melting point of 179 to 180 °C.

`NC1N=C(N2CCCCC2)c2ccccc2NC1=O` (stereo not given) returned a melting point of 103 to 105 °C.

The compound `CSc1ncc(Cc2ccc(Cl)cc2)c(=O)[nH]1` returned a melting point of 193 to 194 °C.

With `CN1CCC(=O)N(c2cccc3ccccc23)C1=O`, the melting point lay in the range of 228 to 229 °C.

Turning to `CCCCc1ccc(NC(=O)Nc2ccc(S(N)(=O)=O)cc2)cc1`, the melting point fell in the range of 243 to 245 °C.

`CCC(CC)C(=O)C1=C(O)c2cc(OC)c(OC)c(OC)c2C(O)(c2ccc(OC)c(OC)c2)C1C(=O)OC` (stereo not given) gave a melting point of 156 to 157 °C.

For `Cc1cc(-c2ccc(Cl)cc2)cn2c(-c3nc(-c4cccc(S(N)(=O)=O)c4)no3)cnc12`, the melting point was 301 °C.

`CC(=O)c1ccc(N2C(=O)C(=O)N(c3cccc(Cl)c3)C2=O)cc1` displayed a melting point of 148 °C.

Compound `Fc1ccc(-c2[nH]cc(CCCN3CCNCC3)c2-c2ccncc2)cc1` came in with a melting point of 162 to 164 °C.

In the case of `Cc1ccc(-c2cc(F)cc3c2NC(CN)CO3)c(C(F)(F)F)c1` (stereo not given), the melting point came to 86 °C.

As to `CC(C)Nc1nc2c(Cl)cccc2n1[C@H]1O[C@@H](CO)[C@H](O)[C@@H]1O`, the melting point lay in the range of 225 to 227 °C.

Regarding `IC(I)=C(I)Cn1nnc(-c2ccccc2)n1`, the melting point worked out at 188 °C.

`CCOC(=O)c1ncn(-c2nncs2)c1S` returned a melting point of 182 to 185 °C.

In the case of `O=C(O)C=Cc1nn(-c2ccccc2)c2c1CCC2`, the melting point was determined as 223 °C.

Turning to `O=C(NC(CCc1ccccc1)c1nnc(NS(=O)(=O)c2ccccc2)o1)c1cccc2[nH]c(-c3ccncc3)nc12` (stereo not given), the melting point stood at 220 °C.

`CCc1c(Sc2cc(C)cc(C)c2)[nH]c(=O)[nH]c1=O` came in with a melting point of 224 to 225 °C.

Compound `NC(=O)N1c2ccccc2CC(=NO)c2ccccc21` had a melting point of 230 to 232 °C.

Compound `CCOC(=O)c1cc2cccc(N(C)S(=O)(=O)c3nccn3C)c2[nH]1` registered a melting point of 120 °C.

In the case of `Nc1nc2ccc(S(=O)(=O)n3c(CCCC(=O)O)cc4nc(Cl)ccc43)cc2o1`, the melting point worked out at 273 °C.

`Cc1c(NC(=O)c2ccc(OCc3ccc(F)cc3)cc2)ccc2cc(CN3CCCCC3)cnc12` displayed a melting point of 159 to 160 °C.

`CC(=O)c1cc2c(s1)CCC1CC(=O)N(c3ccc(C)cc3)N=C21` (stereo not given) returned a melting point of 191 to 193 °C.

Compound `CCCC1CCC(C2(N=C=S)C=CC(CC)=CC2)CC1` (stereo not given) returned a melting point of 43 °C.

With `CCC(Oc1ccc(-n2c(C)nc3cc(C(F)(F)F)ccc32)cc1)C(=O)O` (stereo not given), the melting point stood at 98 °C.

On to `N#CC1=C(c2cccs2)Nc2n[nH]cc2C1c1cccc2nonc12` (stereo not given), for which the melting point turned out to be 230 °C.

Compound `ClCc1coc(-c2ccc(OCc3ccccc3)cc2)n1` returned a melting point of 119 to 120 °C.

`NC(=O)C1C=Cc2cc(Cl)ccc2N1C(=O)c1ccccc1` (stereo not given) had a melting point of 230 to 234 °C.

`CC(C)(NC(=O)C(O)C(Cc1ccc(S(C)(=O)=O)cc1)NC(=O)OCc1ccccc1)C(=O)O` (stereo not given) had a melting point of 146 to 147 °C.

`O=C(NC(=O)c1c(F)cccc1F)Nc1cc(Cl)cc(C(F)(F)F)c1Cl` had a melting point of 205 to 208 °C.

For `NC(=O)[C@H]1CN2C(=O)N(c3cc(Cl)cc(Cl)c3)C(=O)[C@]2(Cc2ccc(OC(F)(F)F)cc2)C1`, the melting point came out at 123 °C.

`Cc1cc(N2CCC(CN3CCN(S(=O)(=O)c4ccc(Br)cc4)CC3)CC2)nc(C)n1` gave a melting point of 73 to 74 °C.

`O=C1NC(=O)C2(C(=O)N(Cc3ccc(Cl)c(Cl)c3)c3ccccc32)N1C(=O)OCc1ccccc1` (stereo not given) came in with a melting point of 215 to 217 °C.

Take `COc1ccc2nc(Nc3cc(C)cs3)[nH]c2c1`: the melting point lay within 143 to 146 °C.

In the case of `COc1cccc2c1nc(C(F)F)n2-c1nc(Nc2ccc(F)nc2)nc(N2CCOCC2)n1`, the melting point was in the range of 261 to 263 °C.

Compound `NS(=O)(=O)c1ccc(NN=C2C(=O)Nc3ccc(C(=O)NCCO)cc32)cc1` showed a melting point greater than 230 °C.

Regarding `CCCn1c(=O)c2c(nc(C=Cc3cc(OC)c(OC)c(OC)c3S(=O)(=O)O)n2C)n(CCC)c1=O`, the melting point was in the range of 248 to 250 °C.

The compound `N#CCC(CC#N)c1cccc(OCc2ccccc2)c1` came in with a melting point of 140 to 143 °C.

Consider `Cc1ccccc1N1CCN(CCn2c(=O)[nH]c3cscc3c2=O)CC1`, for which the melting point was in the range of 214 to 216 °C.

As to `CCCCCCCCCCCCCCNC(=S)NC(=O)c1ccc(C#N)cc1`, the melting point fell in the range of 78 to 80 °C.

Turning to `CC(=O)c1cc(CNS(C)(=O)=O)ccc1O`, the melting point is 85 to 86.5 °C.

`Fc1ccc2c(CN3CCN(CCc4ccccc4)CC3)n[nH]c2c1`: the melting point fell in the range of 148 to 149 °C.

Compound `O=C(O)CN1C(=O)C(=Cc2ccc3ccccc3c2)SC1=S` had a melting point of 257 to 264 °C.

`CN(C)NC(=O)N1CCC(=Cc2cc(C(C)(C)C)c(O)c(C(C)(C)C)c2)C1=O`: the melting point lay in the range of 133 to 134 °C.

In the case of `CN1C(C)(C)CC2(CC1(C)C)NC(=O)N(CC(O)COC(=O)CCCCC(=O)OCC(O)CN1C(=O)NC3(CC(C)(C)N(C)C(C)(C)C3)C1=O)C2=O` (stereo not given), the melting point fell in the range of 180 to 184 °C.

In turn, `Cn1cccc1-c1nc(-c2cccnc2)no1` gave a melting point of 108 to 109 °C.

As for `CNCC(O)C1=CNC2C=CC=CC12` (stereo not given), the melting point lay in the range of 117 to 120 °C.

In turn, `N#CCc1c[nH]c2ccc(NC(=O)NC3CCCCC3)cc12` registered a melting point of 233 to 234 °C.

`CC(C)(CC(O)(Cn1cc(Cl)c(=O)c2cnccc21)C(F)(F)F)c1cccc2c1OCC2` (stereo not given) gave a melting point of 158 to 160 °C.

The compound `O=C(O)C1CCCN1S(=O)(=O)c1ccc(F)cc1` (stereo not given) yielded a melting point of 145 to 148 °C.

As to `CCNS(=O)(=O)c1cncc([N+](=O)[O-])c1`, the melting point was 117 to 118 °C.

As to `COc1ccc(Nc2nc(NC3CCCCCC3)nc(OCC3CCCN3)n2)cc1Cl` (stereo not given), the melting point was 84 to 86 °C.

Turning to `C=CC[C@H]1C(=O)N[C@H]2CCN(C(=O)OCc3ccccc3)[C@@H]21` (relative stereo), the melting point amounted to 160 °C.

`COc1ccc(CN2C(=O)C(C)(c3cc(CN4CCCCC4=O)ccc3Cl)c3cc(Cl)ccc32)c(OC)c1` (stereo not given) returned a melting point of 72 °C.

As to `CCc1ccc2c(c1)CC(NC(=O)C(F)(F)F)C2` (stereo not given), the melting point fell in the range of 112 to 114 °C.

As to `O=c1[nH]cnc2sccc12`, the melting point fell in the range of 256 to 258 °C.

The compound `CC1=C(C(=O)OC(C)(C)C)C(c2ccc(Cl)cc2)C(C(=O)OC(C)(C)C)=C(C)N1` displayed a melting point of 192 °C.

As usually defined, the melting point is the temperature, or range, at which the solid turns liquid.
